Drawing on ChEMBL document CHEMBL1201862, “PubChem BioAssay data set” (2004), this text covers IC50 and EC50 for four compounds.

Test [1] addresses T1, Hexokinase HKDC1 (Homo sapiens, UniProt Q2TB90).
T1 sequence (Q2TB90 whole entry): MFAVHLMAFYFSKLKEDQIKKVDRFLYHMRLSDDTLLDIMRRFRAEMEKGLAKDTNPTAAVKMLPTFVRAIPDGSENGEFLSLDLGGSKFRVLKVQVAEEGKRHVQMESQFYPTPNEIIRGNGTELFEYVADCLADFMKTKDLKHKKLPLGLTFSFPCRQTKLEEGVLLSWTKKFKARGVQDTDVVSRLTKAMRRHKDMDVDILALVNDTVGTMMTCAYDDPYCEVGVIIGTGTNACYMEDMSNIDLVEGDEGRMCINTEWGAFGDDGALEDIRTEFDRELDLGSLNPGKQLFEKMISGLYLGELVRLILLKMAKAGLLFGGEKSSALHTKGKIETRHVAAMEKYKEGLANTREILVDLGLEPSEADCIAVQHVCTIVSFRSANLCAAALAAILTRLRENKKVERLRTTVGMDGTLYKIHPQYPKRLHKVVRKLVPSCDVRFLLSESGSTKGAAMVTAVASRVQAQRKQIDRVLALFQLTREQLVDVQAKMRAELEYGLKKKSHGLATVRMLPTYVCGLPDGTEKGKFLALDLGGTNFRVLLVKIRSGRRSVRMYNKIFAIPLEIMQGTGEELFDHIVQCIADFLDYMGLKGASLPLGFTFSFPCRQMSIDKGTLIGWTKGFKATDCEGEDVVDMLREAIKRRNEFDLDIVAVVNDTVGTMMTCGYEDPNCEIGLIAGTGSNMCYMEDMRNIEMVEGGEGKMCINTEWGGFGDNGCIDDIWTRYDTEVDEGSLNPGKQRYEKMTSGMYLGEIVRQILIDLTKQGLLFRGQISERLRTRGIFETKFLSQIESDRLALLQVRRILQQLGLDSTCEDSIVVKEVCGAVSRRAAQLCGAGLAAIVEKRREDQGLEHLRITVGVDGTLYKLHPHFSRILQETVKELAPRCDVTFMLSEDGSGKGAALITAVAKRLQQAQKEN
As to the kind of experiment: inhibition of HKDC1 glucose phosphorylation – biochemical, W721R variant, dose response (AID 504729). In kind it is functional.

The target in test [2] is Potassium voltage-gated channel subfamily KQT member 2 (Rattus norvegicus, UniProt O88943). Description: potentiation of rat KCNQ2 current – cell-based, retigabine-insensitive compounds, dose response (AID 2654). In kind it is functional.
Potassium voltage-gated channel subfamily KQT member 2, sequence (O88943 whole entry): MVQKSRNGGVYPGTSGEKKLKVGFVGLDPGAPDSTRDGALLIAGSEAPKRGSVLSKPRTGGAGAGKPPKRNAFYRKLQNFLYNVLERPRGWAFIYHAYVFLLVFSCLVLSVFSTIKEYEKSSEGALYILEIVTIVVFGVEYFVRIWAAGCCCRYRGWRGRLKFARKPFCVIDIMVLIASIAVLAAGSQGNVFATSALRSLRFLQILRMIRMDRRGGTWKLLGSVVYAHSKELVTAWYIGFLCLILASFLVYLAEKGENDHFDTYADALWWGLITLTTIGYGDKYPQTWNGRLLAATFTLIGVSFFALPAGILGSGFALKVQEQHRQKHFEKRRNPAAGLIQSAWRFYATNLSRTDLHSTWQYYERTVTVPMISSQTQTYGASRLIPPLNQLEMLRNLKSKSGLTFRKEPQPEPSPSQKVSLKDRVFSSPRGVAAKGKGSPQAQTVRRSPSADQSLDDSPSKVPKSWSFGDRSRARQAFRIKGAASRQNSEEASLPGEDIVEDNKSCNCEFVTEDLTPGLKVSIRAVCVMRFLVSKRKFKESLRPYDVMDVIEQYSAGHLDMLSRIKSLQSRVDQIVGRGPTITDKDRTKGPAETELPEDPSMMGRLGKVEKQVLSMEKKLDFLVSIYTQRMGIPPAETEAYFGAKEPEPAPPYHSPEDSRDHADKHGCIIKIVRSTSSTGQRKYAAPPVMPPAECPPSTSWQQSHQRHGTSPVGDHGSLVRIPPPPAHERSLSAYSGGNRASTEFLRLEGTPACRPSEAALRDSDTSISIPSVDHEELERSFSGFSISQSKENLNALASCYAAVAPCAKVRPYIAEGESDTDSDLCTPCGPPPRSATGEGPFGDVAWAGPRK
The target in test [3] is Protein Rev (Human immunodeficiency virus type 1 group M subtype B (isolate HXB2)(HIV-1), UniProt P04618). As to the kind of experiment: blockers of HIV Rev/RRE RNA complex – biochemical, fluorescence polarization, HIV-1, dose response (AID 434976). More on the design: species or system Human immunodeficiency virus 1. Background: Polarisation of emitted light reports the rotation of a fluorescent probe.
Protein Rev, sequence (P04618 whole entry): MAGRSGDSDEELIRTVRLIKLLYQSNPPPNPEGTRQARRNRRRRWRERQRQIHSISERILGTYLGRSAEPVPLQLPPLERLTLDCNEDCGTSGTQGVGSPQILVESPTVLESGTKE

The target of test [4] is T2, RNA-binding protein pos-1 (Caenorhabditis elegans, UniProt G5EF15).
T2 sequence (G5EF15 whole entry): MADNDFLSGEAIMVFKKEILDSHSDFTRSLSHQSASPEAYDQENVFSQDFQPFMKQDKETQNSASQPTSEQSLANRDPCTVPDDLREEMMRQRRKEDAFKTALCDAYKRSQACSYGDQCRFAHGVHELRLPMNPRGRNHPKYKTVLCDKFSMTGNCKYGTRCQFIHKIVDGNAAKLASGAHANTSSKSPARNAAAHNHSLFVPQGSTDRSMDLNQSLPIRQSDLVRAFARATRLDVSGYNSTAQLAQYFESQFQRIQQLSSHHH
Description: disruptors of C. elegans POS-1 RNA interaction – biochemical, fluorescence polarization, dose response (AID 1964).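 Also: purified POS-1 fused to maltose binding protein made in E. coli; potency of compounds blocking POS-1 binding to fluorescent RNA.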

Test [5] deals with T3, Zinc finger protein mex-5 (Caenorhabditis elegans, UniProt Q9XUB2).
T3 sequence (Q9XUB2 whole entry): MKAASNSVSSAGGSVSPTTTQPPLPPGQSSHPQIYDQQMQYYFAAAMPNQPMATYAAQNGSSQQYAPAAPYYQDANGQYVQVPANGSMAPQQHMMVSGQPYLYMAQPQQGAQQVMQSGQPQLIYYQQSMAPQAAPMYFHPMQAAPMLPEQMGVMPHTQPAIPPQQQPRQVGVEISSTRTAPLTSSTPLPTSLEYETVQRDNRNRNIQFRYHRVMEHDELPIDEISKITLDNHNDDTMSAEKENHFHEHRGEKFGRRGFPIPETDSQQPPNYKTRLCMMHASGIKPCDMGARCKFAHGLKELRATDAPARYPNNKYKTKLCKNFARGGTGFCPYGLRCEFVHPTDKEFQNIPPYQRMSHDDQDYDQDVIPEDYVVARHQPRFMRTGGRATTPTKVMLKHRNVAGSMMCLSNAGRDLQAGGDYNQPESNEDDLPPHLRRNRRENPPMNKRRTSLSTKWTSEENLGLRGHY
Description: potency of MEX-5 RNA-binding blockers – biochemical, C. elegans, fluorescence polarization, dose response (AID 1960).

For test [6], the target named is Genome polyprotein (dengue virus type 2, UniProt P29990). As to the kind of experiment: flavivirus cap methylation enzyme inhibition – biochemical, confirmation dose response, primary screen (AID 588689). In kind it is functional.
Genome polyprotein, sequence (P29990 2492-3391 limits assumed): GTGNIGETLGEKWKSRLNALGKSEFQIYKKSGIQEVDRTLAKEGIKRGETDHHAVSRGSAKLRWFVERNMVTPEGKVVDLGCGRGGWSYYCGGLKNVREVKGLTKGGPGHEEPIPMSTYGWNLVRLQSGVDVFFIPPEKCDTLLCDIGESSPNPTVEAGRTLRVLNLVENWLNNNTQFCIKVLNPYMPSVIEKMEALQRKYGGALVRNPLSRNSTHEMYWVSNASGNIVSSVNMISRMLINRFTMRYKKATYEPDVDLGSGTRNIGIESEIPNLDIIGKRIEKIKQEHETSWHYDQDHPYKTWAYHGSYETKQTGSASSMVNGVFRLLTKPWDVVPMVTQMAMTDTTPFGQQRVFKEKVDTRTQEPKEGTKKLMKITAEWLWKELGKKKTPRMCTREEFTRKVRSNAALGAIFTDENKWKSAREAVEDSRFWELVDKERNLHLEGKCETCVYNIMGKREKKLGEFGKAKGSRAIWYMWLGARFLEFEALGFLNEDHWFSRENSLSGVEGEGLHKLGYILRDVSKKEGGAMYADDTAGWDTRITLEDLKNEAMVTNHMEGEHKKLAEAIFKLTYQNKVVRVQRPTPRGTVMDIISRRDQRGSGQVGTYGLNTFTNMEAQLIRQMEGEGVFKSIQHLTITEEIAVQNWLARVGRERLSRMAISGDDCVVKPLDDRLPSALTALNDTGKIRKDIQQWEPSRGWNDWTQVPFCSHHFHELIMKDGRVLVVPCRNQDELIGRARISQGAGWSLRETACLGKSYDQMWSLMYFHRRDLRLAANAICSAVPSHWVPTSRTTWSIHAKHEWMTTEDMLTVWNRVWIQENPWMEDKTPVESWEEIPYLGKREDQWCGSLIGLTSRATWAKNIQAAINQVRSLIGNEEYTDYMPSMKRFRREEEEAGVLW
Test [7] addresses T4, Polyadenylate-binding protein 1 (Homo sapiens, UniProt P11940). As to the kind of experiment: MLLE domain peptide-binding blockers, IC50 – biochemical, fluorescence polarization, FITC-PAM2 peptide, dose response (AID 602259). The format is functional. As to conditions: read-out: IC50_Mean.
Test [8] has as its target T4, Polyadenylate-binding protein 1. Description: MLLE binding blockers, Cy5 peptide tracer – biochemical, fluorescence polarization, Cy5-PAM2 peptide, secondary, miRNA deadenylation inhibitor project, dose response (AID 602260). The format is functional. As to conditions: read-out: IC50_Mean.
The target of test [9] is Female germline-specific tumor suppressor gld-1 (Caenorhabditis elegans, UniProt Q17339). As to the kind of experiment: blockers of GLD-1/TGE RNA complex formation – biochemical, fluorescence polarization, C. elegans, dose response (AID 2802).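 Also: fluorescence polarization of labeled TGE RNA bound by purified gld-1 protein.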
Female germline-specific tumor suppressor gld-1, sequence (Q17339 whole entry): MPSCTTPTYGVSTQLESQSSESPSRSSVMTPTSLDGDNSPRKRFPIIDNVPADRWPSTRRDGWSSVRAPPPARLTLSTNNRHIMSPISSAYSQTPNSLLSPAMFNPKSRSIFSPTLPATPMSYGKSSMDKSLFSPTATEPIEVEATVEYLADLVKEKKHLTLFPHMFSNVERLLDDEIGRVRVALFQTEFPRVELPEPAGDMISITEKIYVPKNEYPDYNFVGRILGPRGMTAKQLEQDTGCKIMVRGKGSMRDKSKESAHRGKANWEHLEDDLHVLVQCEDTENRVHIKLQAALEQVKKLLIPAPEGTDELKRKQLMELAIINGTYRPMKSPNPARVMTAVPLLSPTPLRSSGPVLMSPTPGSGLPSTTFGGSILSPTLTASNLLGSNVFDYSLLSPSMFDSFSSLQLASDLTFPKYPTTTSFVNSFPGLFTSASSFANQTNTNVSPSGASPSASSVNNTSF

The source made the active and inactive calls.

T4 sequence (P11940 whole entry, the tested form may be a part): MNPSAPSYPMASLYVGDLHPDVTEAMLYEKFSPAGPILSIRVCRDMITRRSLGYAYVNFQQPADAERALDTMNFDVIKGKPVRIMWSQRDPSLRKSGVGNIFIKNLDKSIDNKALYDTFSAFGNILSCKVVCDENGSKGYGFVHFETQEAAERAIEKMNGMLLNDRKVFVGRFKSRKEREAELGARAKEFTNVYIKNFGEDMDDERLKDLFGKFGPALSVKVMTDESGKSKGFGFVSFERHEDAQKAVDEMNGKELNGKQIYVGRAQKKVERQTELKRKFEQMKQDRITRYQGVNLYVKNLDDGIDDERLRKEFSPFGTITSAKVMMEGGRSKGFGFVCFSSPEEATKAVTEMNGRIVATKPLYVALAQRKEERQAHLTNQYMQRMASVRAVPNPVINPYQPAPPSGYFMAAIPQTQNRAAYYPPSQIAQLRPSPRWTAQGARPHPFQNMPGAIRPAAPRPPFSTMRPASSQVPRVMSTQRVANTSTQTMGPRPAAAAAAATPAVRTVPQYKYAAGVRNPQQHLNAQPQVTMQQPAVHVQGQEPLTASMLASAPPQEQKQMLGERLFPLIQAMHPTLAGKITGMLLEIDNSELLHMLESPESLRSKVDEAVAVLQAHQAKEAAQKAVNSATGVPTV

With `O=C(CSc1nnc(CCCN2C(=O)c3cccc4cccc(c34)C2=O)n1-c1ccccc1)N1CCN(CCO)CC1`, the IC50 in test [1] was 9.27 µM (active).
On to `O=C(Nc1cccnc1)Nc1cccc(Cl)c1`, for which the EC50 – broadly, the concentration needed to bring the measured effect to its halfway point – in test [2] was 18.3 µM (active).
Take `O=C1c2ccccc2C(=O)c2c1cccc2N(CCO)CCO`: the IC50 was 8.44 µM (active) in test [3]; 28.8 µM (active) in test [6]; 47.7 µM (inactive) in test [7]; > 66 µM (inactive) in [8]; 5.51 µM (active) in test [9]. Also, the results for the EC50 in [4] and in test [5] were 19.6 µM (active) and 17 µM (active), respectively.
On to `O=C(NCc1ccc(Cl)cc1Cl)Nc1ccc(Cl)nc1`, for which, in [2], the EC50 was 3.74 µM (active).
